Assay results: patent US11286281B2, “Homodetic cyclic peptides targeting alpha-4-beta-7 integrin” (priority 2017, dated 2022)
Numbered stars: 1 amine (or outer) side, 2 acyl side, 3 side chain; on linkers, the order of the positions; unused ones are H or OH. Square brackets hold non-standard residues; d marks the D form. Peptide text beside a SMILES is read from it. X1 = O=C(c1ccc(-c2ccc(N3CCNCC3)cc2)c(CN[*:1])c1)[*:2]

Target: T1, integrin α4β7 (Mus musculus, UniProt P26011+Q00651)
T1 construct: host or cells: TK-1 mouse T-cell lymphoma cells
T1 sequence (Q00651 41-1039): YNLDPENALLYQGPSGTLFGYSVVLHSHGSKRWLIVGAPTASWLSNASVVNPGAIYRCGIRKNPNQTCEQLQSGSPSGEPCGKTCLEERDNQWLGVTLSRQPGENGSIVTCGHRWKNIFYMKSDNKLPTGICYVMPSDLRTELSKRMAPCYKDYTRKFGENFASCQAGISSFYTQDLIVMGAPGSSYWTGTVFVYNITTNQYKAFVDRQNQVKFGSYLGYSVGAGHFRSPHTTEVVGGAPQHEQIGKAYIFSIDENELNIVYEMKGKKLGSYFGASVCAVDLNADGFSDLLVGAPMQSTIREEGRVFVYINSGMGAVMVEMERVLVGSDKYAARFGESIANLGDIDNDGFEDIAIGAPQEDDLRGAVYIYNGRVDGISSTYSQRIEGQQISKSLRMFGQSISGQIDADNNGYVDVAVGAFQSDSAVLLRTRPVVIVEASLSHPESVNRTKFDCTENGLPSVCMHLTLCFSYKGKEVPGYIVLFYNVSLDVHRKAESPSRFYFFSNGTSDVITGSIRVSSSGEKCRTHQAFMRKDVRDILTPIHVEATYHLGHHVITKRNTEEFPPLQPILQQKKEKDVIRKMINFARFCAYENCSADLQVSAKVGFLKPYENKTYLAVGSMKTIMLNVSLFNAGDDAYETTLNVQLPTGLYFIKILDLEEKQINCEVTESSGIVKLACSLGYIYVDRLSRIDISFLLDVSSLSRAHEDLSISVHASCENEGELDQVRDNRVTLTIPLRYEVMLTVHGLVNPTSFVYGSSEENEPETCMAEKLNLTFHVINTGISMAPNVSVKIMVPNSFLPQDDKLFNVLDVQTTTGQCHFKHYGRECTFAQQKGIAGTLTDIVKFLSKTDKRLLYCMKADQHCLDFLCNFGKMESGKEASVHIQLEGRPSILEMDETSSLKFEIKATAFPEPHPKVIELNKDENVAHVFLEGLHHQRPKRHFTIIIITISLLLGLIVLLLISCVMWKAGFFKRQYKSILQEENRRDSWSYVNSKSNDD
T1 sequence (P26011 20-806): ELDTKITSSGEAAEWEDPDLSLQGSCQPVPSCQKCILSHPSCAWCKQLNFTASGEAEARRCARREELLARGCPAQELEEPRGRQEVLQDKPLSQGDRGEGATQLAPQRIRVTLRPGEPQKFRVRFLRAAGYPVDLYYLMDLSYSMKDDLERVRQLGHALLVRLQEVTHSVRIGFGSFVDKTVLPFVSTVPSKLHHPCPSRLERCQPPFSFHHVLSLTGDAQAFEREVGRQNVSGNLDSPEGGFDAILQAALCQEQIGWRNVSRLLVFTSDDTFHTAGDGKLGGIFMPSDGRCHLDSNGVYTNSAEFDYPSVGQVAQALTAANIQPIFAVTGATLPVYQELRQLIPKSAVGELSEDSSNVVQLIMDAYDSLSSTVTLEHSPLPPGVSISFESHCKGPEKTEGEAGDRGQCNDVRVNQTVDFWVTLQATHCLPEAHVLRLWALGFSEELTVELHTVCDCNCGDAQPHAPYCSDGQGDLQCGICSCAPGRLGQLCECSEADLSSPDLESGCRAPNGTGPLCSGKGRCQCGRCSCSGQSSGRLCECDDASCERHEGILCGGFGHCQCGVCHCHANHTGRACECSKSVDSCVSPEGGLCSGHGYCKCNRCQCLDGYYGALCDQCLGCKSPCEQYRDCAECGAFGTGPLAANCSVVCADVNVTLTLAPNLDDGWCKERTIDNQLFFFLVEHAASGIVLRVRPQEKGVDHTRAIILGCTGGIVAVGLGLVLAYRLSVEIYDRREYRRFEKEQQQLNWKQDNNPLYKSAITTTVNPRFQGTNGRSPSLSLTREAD
Experiment: Integrin α4β7-MAdCAM mouse cell adhesion assay (TK-1 cells)
Assay type: cell-based
Settings: for IC50: TK-1 cells, read-out: IC50 in mouse α4β7-containing cell adhesion
Method: TK-1 mouse T-cells lymphoma cell lines (ATCC CRL2396) were cultured in RPMI 1640 medium (HyClone SH30027.1) supplemented with 10% FBS (Seradigm) and 1% Penicillin-Streptomycin. A 96-well plate (Costar, 3603) was coated with 100 μl/well of recombinant mouse MAdCAM-1 Fc Chimera (R&D Systems, 993-MC-050) solution at 0.25 μg/ml in coating buffer (50 mM sodium carbonate, pH 9.6). The plate was incubated overnight at 4° C. and washed twice with 150 μl per well wash buffer (0.05% Tween 20 in PBS), blocked with 250 μl per well blocking buffer (1% non-fat dry milk in PBS), and incubated for 2 hours at room temperature. TK-1 cells were resuspended at 10 million cells/ml in PBS containing […] and incubated at 37° C. for 30 min in a 50 ml tube. […] The plate was emptied by inverting and blotting on paper towels and washed manually twice with PBS. 100 μl PBS was then added to each well. The fluorescence was read (Ex495/Em515) using a plate reader (Tecan Infinite 1000). To calculate the dose response, the fluorescence value of control wells not containing cells was subtracted from each test well.

Row | Compound | IC50 [nM] | fold difference in IC50 between mouse α4β7-containing and human α4β7-containing cell adhesion (TK-1 versus RPMI8866, weaker in mouse) [fold]
1 | CC(C)C[C@@H]1NC(=O)c2ccc(-c3ccc(N4CCN(Cc5cccc(CN6CCN(c7ccc(-c8ccc9cc8CNC(=O)[C@@H]8CCCN8C(=O)[C@H](C)NC(=O)[C@H]([C@@H](C)O)NC(=O)[C@H](CC(=O)O)NC(=O)[C@H](CC(C)C)NC9=O)cc7)CC6)c5)CC4)cc3)c(c2)CNC(=O)[C@@H]2CCCN2C(=O)[C@H](C)NC(=O)[C@H]([C@@H](C)O)NC(=O)[C@H](CC(=O)O)NC1=O [Compound 18] | ~68 | –
2 | CC(C)C[C@@H]1NC(=O)c2ccc(-c3ccc(N4CCNCC4)cc3)c(c2)CNC(=O)[C@@H]2CCCN2C(=O)[C@H](C)NC(=O)[C@H]([C@@H](C)O)NC(=O)[C@H](CC(=O)O)NC1=O [Compound 8] (cyclo(P[X1]LDTA)) | – | ~10
3 | CC(C)C[C@@H]1NC(=O)c2ccc(-c3ccc(N4CCN(C(=O)COCC(=O)N5CCN(c6ccc(-c7ccc8cc7CNC(=O)[C@@H]7CCCN7C(=O)[C@H](C)NC(=O)[C@H]([C@@H](C)O)NC(=O)[C@H](CC(=O)O)NC(=O)[C@H](CC(C)C)NC8=O)cc6)CC5)CC4)cc3)c(c2)CNC(=O)[C@@H]2CCCN2C(=O)[C@H](C)NC(=O)[C@H]([C@@H](C)O)NC(=O)[C@H](CC(=O)O)NC1=O [Compound 17] | ~97 | –
